Experimental data reported in patent US9145412B2, “Selective HDAC1 and HDAC2 inhibitors” (Acetylon Pharmaceuticals, Inc., priority 2012, dated 2015).
pIC50: −log10 of the molar value.

What was measured:
[1] = tested on: early erythroblasts (CD71+, GlyA−); assay: Gene expression profiling, Affymetrix PrimeView GeneChips; type: cell-based; conditions: n=3 vs vehicle
Description: (§1) Significant enrichment in other gene sets involving targets linked to HbG regulation, including lysine-specific demethylase 1 (LSD1) (Shi L, Nature Medicine, 2012) were identified.

[2] = tested on: late erythroblasts (CD71+, GlyA+); assay: as above; type: cell-based
Description: as §1

[3] = tested on: human CD34+ bone marrow cells; assay: Cell viability / cytotoxicity in cultured CD34+ cells; type: cell-based; conditions: 1 μM, after 6 days of treatment
Description: (§2) To investigate whether HDAC1 or HDAC2 was the preferred therapeutic target, two compounds were used.

[4] = tested on: human CD34+ bone marrow cells; assay: Erythroid differentiation markers CD71 and glycophorinA; type: cell-based; conditions: 1 μM, 6 days
Description: as §2

[5] = tested on: human CD34+ bone marrow cells; assay: Fetal globin (HbG) induction in cultured CD34+ cells undergoing erythroid differentiation; type: cell-based; conditions: for increase in the percentage of HbG relative to other beta-like globin transcripts: 1 μM, treatment of cells for 6 days
Description: CD34+ cells isolated from human bone marrow were cultured in vitro using two distinct sets of culture conditions. Culture system 1 (CS1), described by Xu J et al. (Science 2011 Nov. 18; 334(6058):993-6), consists of a 7 day expansion phase in media that supports hematopoietic progenitor cells followed by a differentiation phase of 4 to 8 days in media that induces development of erythroid lineage cells. Culture system 2 (CS2), described by Bradner J E (Proc Natl Acad Sci USA. 2010 Jul. 13; 107(28):12617-22), consists of a 7 day expansion phase in media that supports differentiation of cells towards the erythroid lineage followed by a differentiation phase for 3 days where erythroid cell development continues. After 3 to 5 days in differentiation media CS1 cells are primarily early erythroblasts (EB), while CS2 cells are primarily late EB. mRNA levels were determine by quantitative real time PCR using primer/probe sets designed to adult major β-globin (β), adult minor β-globin (δ), fetal β-like globin (HbG, γ), and embryonic β-like globin (ε). Protein levels were determined by flow cytometry using fluorescent antibodies against fetal hemoglobin (HbF) or adult hemoglobin (HbA). […] Globin mRNA levels were determined in cells at day 0, 3, 5, and 8 of differentiation. […] Globin mRNA levels were determined at day 3 of differentiation. […] Hemoglobin protein levels within each cell were determined at day 5 of differentiation. […] After 2 days, media was exchanged and cells were differentiated for an additional 2 days in the absence of compound. Hemoglobin protein levels within each cell were determined at day 4 of differentiation.
as §2

Klf2 mRNA = assay: GeneChip and quantitative real-time PCR time course; type: cell-based
Description: (§3) ChIP-seq data, both by itself and in combination with gene expression data, will provide further insight into the mechanism through which HDAC1/2 regulates HbF synthesis.

Bcl11A mRNA = assay: as above; type: cell-based
Description: as §3

Gata2 mRNA = assay: as above; type: cell-based
Description: as §3

Sox6 mRNA = assay: as above; type: cell-based
Description: as §3

HDAC3 = HDAC3 (Homo sapiens (Human), UniProt O15379); assay: HDAC enzyme assay; type: biochemical; conditions: enzyme pre-incubated with compound for 24 hours
Description: (§4) Compounds for testing were diluted in DMSO to 50 fold the final concentration and a ten point three fold dilution series was made. The compounds were diluted in assay buffer (50 mM HEPES, pH 7.4, 100 mM KCl, 0.001% Tween-20, 0.05% BSA, 20 μM tris(2-carboxyethyl)phosphine) to 6 fold their final concentration. The HDAC enzymes (purchased from BPS Biosciences) were diluted to 1.5 fold their final concentration in assay buffer and pre-incubated with the compounds for 24 hours prior to addition of the substrate.
(§5) The substrate tripeptide substrate 3 (synthesized in house) for each enzyme was equal to the Km as determined by a substrate titration curve. The substrates were diluted in assay buffer at 6× their final concentration with 0.3 μM sequencing grade trypsin (Sigma). The substrate/trypsin mix was added to the enzyme/compound mix, the plate was shaken for 60 seconds and placed into a Spectramax M5 microtiter plate reader. The development of fluorescence was monitored for […] and the linear rate of the reaction was calculated. The IC50 was determined using Graph Pad Prism by a four parameter curve fit. The IC50 values obtained for the compounds of this invention are found in Table 1.

HDAC2 = HDAC2 (Homo sapiens (Human), UniProt Q92769); assay: HDAC enzyme assay; type: biochemical; conditions: enzyme pre-incubated with compound for 24 hours
Description: as §4, §5

HDAC1 = HDAC1 (Homo sapiens (Human), UniProt Q13547); assay: HDAC enzyme assay; type: biochemical; conditions: enzyme pre-incubated with compound for 24 hours
Description: as §4, §5

Sequence of HDAC3 (O15379 whole entry): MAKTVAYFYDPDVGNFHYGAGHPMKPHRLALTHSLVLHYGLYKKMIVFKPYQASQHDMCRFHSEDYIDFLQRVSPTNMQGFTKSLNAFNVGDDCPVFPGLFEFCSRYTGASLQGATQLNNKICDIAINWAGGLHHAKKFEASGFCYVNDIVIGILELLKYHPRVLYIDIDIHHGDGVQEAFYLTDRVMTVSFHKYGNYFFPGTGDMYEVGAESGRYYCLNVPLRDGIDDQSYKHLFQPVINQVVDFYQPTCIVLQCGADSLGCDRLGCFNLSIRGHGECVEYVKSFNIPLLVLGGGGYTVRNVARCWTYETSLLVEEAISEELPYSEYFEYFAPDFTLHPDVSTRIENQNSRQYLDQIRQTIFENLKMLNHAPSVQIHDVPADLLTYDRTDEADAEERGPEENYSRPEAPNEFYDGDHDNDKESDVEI
Sequence of HDAC3 (Q9Y618 395-489 partner): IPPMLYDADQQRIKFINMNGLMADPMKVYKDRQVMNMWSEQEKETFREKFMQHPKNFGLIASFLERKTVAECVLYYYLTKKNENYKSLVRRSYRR
Sequence of HDAC1 (Q13547 whole entry): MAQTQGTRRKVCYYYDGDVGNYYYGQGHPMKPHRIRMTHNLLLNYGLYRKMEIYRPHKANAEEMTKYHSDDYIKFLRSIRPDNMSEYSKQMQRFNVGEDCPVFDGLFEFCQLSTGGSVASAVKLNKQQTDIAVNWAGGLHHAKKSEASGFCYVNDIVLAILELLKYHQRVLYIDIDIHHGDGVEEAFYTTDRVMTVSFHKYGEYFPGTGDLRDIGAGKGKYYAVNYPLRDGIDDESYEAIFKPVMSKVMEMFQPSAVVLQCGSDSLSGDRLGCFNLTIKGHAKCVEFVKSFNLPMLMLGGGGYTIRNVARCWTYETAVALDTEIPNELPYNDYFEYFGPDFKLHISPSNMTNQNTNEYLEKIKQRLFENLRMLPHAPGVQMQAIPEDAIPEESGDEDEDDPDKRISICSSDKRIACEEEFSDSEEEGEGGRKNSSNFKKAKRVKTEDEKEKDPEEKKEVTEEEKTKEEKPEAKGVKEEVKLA
Sequence of HDAC2 (Q92769 whole entry): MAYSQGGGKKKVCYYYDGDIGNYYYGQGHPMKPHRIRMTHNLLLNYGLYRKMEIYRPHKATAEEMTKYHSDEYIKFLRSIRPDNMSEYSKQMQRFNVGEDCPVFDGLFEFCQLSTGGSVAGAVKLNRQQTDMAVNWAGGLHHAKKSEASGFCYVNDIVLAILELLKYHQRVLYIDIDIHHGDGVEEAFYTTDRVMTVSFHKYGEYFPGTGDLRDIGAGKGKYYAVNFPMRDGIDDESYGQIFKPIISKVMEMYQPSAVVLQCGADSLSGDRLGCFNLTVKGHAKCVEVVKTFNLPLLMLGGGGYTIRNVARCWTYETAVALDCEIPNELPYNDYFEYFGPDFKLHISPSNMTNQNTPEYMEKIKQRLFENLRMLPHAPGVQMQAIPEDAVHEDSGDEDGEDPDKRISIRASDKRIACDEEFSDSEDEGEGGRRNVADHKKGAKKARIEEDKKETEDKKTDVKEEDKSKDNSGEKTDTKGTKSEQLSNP

Nc1ccc(-c2cccs2)cc1NC(=O)c1ccc2nc(N3CCNCC3)ccc2c1 [Compound 001, N-(2-amino-5-(thiophen-2-yl)phenyl)-2-(piperazin-1-yl)quinoline-6-carboxamide]
probe sets down regulated [1]: 681
probe sets up regulated [1]: 1294
total probe set changes [2]: 255
decrease in cell viability [3]: approximately 3 fold
cells positive for the erythroid differentiation markers CD71 and glycophorinA [4]: reduction
increase in the percentage of HbG relative to other beta-like globin transcripts [5]: 3 fold
HbG induction in cells positive for both CD71 and GlyA ([5]; follow-up experiments, CD71+ GlyA+ cells): unable to induce HbG
increase in Klf2 mRNA (Klf2 mRNA): 2 fold
decrease in Bcl11A mRNA (Bcl11A mRNA): 2 fold
increase in Gata2 mRNA (Gata2 mRNA): 8 fold
decrease in Sox6 mRNA (Sox6 mRNA): 10 fold
pIC50 (HDAC3): 6.94
pIC50 (HDAC2): 7.82
pIC50 (HDAC1): 8.40

Nc1ccc(-c2ccncc2)cc1NC(=O)c1ccc2c(c1)cc(C1CC1)n2CCN1CCOCC1 [Compound 004, N-(2-amino-5-(pyridin-4-yl)phenyl)-2-cyclopropyl-1-(2-morpholinoethyl)-1H-indole-5-carboxamide]
decrease in cell viability [3]: 1.2 fold
increase in the percentage of HbG relative to other beta-like globin transcripts [5]: 3 fold
pIC50 (HDAC3): 6.61
pIC50 (HDAC2): 7.62
pIC50 (HDAC1): 7.57
